Assay results reported in US8664214B2, “Small molecule potentiators of metabotropic glutamate receptors I” (AbbVie Deutschland GmbH & Co. KG, priority 2010, dated 2014).

target: T1, human mGlu2 receptor (Homo sapiens, UniProt Q14416); test: FLIPR intracellular Ca2+ assay, potentiation of 1 μM glutamate in HEK293 cells expressing hmGlu2, rGLAST and Galpha16; format: cell-based; conditions: HEK293 hmGlu2 clone
T1 construct: V5/His (named only as part of the vector); expressed in transfected cells; host or cells: HEK293
T1 sequence (Q14416 19-872): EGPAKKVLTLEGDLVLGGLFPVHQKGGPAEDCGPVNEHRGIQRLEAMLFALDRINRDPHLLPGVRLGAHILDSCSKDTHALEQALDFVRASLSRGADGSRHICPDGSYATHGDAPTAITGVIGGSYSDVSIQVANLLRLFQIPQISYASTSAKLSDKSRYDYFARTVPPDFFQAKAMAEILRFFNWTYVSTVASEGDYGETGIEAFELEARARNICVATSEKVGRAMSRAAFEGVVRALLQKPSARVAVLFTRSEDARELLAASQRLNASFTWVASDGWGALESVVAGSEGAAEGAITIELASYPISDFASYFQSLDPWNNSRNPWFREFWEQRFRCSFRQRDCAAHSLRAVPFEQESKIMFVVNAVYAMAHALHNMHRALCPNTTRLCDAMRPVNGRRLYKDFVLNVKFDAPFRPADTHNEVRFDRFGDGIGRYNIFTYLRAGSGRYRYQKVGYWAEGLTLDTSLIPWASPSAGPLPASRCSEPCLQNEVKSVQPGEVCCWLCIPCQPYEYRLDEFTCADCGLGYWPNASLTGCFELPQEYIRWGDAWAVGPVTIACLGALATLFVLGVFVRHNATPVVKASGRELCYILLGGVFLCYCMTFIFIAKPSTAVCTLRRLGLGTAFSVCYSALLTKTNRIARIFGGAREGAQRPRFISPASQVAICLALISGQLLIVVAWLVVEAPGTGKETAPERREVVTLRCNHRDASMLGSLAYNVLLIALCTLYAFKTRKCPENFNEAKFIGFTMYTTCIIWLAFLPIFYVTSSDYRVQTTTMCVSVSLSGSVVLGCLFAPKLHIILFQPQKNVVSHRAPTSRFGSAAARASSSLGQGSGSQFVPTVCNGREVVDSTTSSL
From the text: The compounds of the present invention can be tested e.g. by evaluating intracellular Ca^2+ concentrations in cells permanently expressing human mGlu receptor, the rat glutamate transporter rGLAST and the Galpha16 subunit of the G-protein complex under standard conditions in a fluorometric imaging plate reader (FLIPR, Molecular Devices, Union City, Calif. 94587, USA) by measuring the response of the cells to a test compound in the absence of presence of glutamate. The FLIPR assay is a common functional assay to monitor native or recombinant Galphaq-coupled receptors, and native or recombinant receptors normally linked to other G-protein signalling cascades, which are coupled to calcium through co-expression of an alpha subunit of a promiscuous or chimeric G-protein. In the assay the increase of intracellular calcium is measured through a calcium-dependent fluorescent dye (e.g. Fluo-4 AM) in the FLIPR instrument.
For the purpose of the present study, a cell line permanently expressing a human mGlu receptor, such as the mGlu2 receptor, the rat glutamate transporter rGLAST and the GalphaG16 may be generated by transfection as described in the examples. For selection of a suitable cell clone and also the subsequent measurements, the selected clone the cells will be plated on suitable multiwell plates in a suitable medium (e.g. DMEM Glutamax (GIBCO # 21885-025)/10% dialyzed FCS). Cells may be selected by gentamycin treatment as described in the examples. Cells will then be loaded with a suitable Ca^2+ sensitive fluorescence dye, e.g. with 2 μM Fluo-4 AM (Molecular Probes, F14201). Cells will then be washed with a suitable buffer (e.g. HEPES) and the thus treated plates will be measured in a fluorometric imaging plate reader (e.g. FLIPR, Molecular Devices, Union City, Calif. 94587, USA).
The compounds of the present invention were tested in the above-described FLIPR assay using the selected cell clone. Increased intracellular calcium levels were quantified following addition of test compound (agonism), as well as following addition of a submaximal concentration of glutamate (potentiation).
For the determination of the effect of the test compound by itself (agonism) or by increasing the response to a submaximal concentration (e.g. 1 μM) of glutamate (potentiation), the resulting signal is determined by subtraction of the background fluorescence from the maximal fluorescent peak height of the respective response. In the FLIPR instrument the compound is given to the cell and its fluorescence response quantified by the FLIPR instrument (agonism). The concentration at which the compound exerts half its maximal effect is named the ‘effective concentration 50’ or ‘EC50’. The maximal effect induced by the test substance is normalized to the maximal effect exerted by 100 μM glutamate (set at 100%).
After addition of the test compound to the plate, a submaximal concentration of glutamate (e.g. 1 μM glutamate) will be added. A potentiator enhances the response of the receptor to glutamate. The response to glutamate in the presence of test compound is quantified. The concentration at which the test compound is able to exert half its maximal potentiation effect to glutamate is named the ‘EC50’. The maximal response to the submaximal concentration of glutamate (e.g. 1 micromolar glutamate) in the presence of test compound is normalized to the maximal effect exerted by 100 micromolar glutamate (set at 100%). Least squares curve fitting with a four-parameter equation is then applied to the resulting dose-response curve to determine the resulting EC50 values (Graph Pad Prism).
For the purpose of the present study, a cell line permanently expressing the human mGlu2 receptor, the rat glutamate transporter rGLAST and the alpha subunit of G16 was generated by transfection. […]

EC50 [µM] | SMILES
< 0.5 | CCCCN1Cc2cc(OCc3c(-c4ccccc4)cc(C)nc3C)ccc2C1=O [Example 1, 2-butyl-5-((2,6-dimethyl-4-phenylpyridin-3-yl)methoxy)isoindolin-1-one]
< 0.5 | Cc1cc(-c2ccccc2)c(COc2ccc3c(c2)CN(CCOC(F)(F)F)C3=O)c(C)n1 [Example 2, 5-((2,6-dimethyl-4-phenylpyridin-3-yl)methoxy)-2-(2-(trifluoromethoxy)ethyl)isoindolin-1-one]
0.5 to 2 | CCCN1Cc2cc(OCc3cnccc3Oc3ccccc3)ccc2C1=O [Example 3, 5-((4-phenoxypyridin-3-yl)methoxy)-2-propylisoindolin-1-one]
< 0.5 | CCCCN1Cc2cc(OCc3c(-c4ccccc4)ccnc3Cl)ccc2C1=O [Example 4, 2-butyl-5-((2-chloro-4-phenylpyridin-3-yl)methoxy)isoindolin-1-one]
< 0.5 | CCCCN1Cc2cc(OCc3c(I)ccnc3Cl)ccc2C1=O [Example 5, 2-butyl-5-((2-chloro-4-iodopyridin-3-yl)methoxy)isoindolin-1-one]
< 0.5 | CCCN1Cc2cc(OCc3cnccc3-c3ccccc3)ccc2C1=O [Example 6, 5-(4-Phenyl-pyridin-3-ylmethoxy)-2-propyl-2,3-dihydro-isoindol-1-one]
< 0.5 | O=C1c2ccc(OCc3cnccc3-c3ccccc3)cc2CN1CCOC(F)(F)F [Example 7, 5-(4-Phenyl-pyridin-3-ylmethoxy)-2-(2-trifluoromethoxy-ethyl)-2,3-dihydro-isoindol-1-one]
2 to 10 | CCCN1Cc2cc(OCc3cnccc3NC(=O)OC(C)(C)C)ccc2C1=O [Example 8, [3-(1-oxo-2-propyl-2,3-dihydro-1H-isoindol-5-yloxymethyl)-pyridin-4-yl]-carbamic acid tert-butyl ester]
< 0.5 | CCN1Cc2cc(OCc3c(-c4ccccc4)cc(C)nc3C)ccc2C1=O [Example 11, 5-(2,6-Dimethyl-4-phenyl-pyridin-3-ylmethoxy)-2-ethyl-2,3-dihydroisoindol-1-one]
< 0.5 | CCCCN1Cc2cc(NCc3c(-c4ccccc4)cc(C)nc3C)ccc2C1=O [Example 13, 2-butyl-5-((2,6-dimethyl-4-phenylpyridin-3-yl)methylamino)isoindolin-1-one]
< 0.5 | CCCCN1Cc2cc(NCc3cnccc3C(F)(F)F)ccc2C1=O [Example 14, 2-butyl-5-((4-(trifluoromethyl)pyridin-3-yl)methylamino)isoindolin-1-one]
< 0.5 | CCCCN1Cc2cc(NCc3cnccc3-c3ccccc3)ccc2C1=O [Example 15, 2-butyl-5-((4-phenylpyridin-3-yl)methylamino)isoindolin-1-one]
< 0.5 | CCCCN1Cc2cc(NCc3cnccc3Oc3ccccc3)ccc2C1=O [Example 16, 2-butyl-5-((4-phenoxypyridin-3-yl)methylamino)isoindolin-1-one]
< 0.5 | CCCCN1Cc2cc(NCc3c(C(F)(F)F)ccnc3Cl)ccc2C1=O [Example 17, 2-butyl-5-((2-chloro-4-(trifluoromethyl)pyridin-3-yl)methylamino)-isoindolin-1-one]
0.5 to 2 | CCCCN1Cc2cc(NCc3cnccc3Nc3ccccc3)ccc2C1=O [Example 19, 2-butyl-5-((4-(phenylamino)pyridin-3-yl)methylamino)isoindolin-1-one]
< 0.5 | CCCCN1Cc2cc(NCc3cnccc3-c3ccc(C#N)cc3)ccc2C1=O [Example 20, 4-(3-((2-butyl-1-oxoisoindolin-5-ylamino)methyl)pyridin-4-yl)benzonitrile]

EC50 [µM] | SMILES
< 0.5 | CCCCN1Cc2cc(NCc3cnccc3-c3ccc(C(F)(F)F)cc3)ccc2C1=O [Example 21, 2-butyl-5-((4-(4-(trifluoromethyl)phenyl)pyridin-3-yl)methylamino)-isoindolin-1-one]
2 to 10 | CCCCN1Cc2cc(NCc3cccnc3)ccc2C1=O [Example 22, 2-butyl-5-[(pyridin-3-ylmethyl)amino]-2,3-dihydro-1H-isoindol-1-one]
< 0.5 | Cc1cc(-c2ccccc2)c(CNc2cc(Cl)c3c(c2)CN(C2CC2)C3=O)c(C)n1 [Example 23, 7-chloro-2-cyclopropyl-5-{[(2,6-dimethyl-4-phenylpyridin-3-yl)methyl]amino}-2,3-dihydro-1H-isoindol-1-one]
< 0.5 | O=C1c2c(Cl)cc(NCc3c(C(F)(F)F)ccnc3Cl)cc2CN1C1CC1 [Example 24, 7-chloro-5-({[2-chloro-4-(trifluoromethyl)pyridin-3-yl]methyl}amino)-2-cyclopropyl-2,3-dihydro-1H-isoindol-1-one]
0.5 to 2 | CCCCN1Cc2cc(NCc3cnccc3N3CCOCC3)ccc2C1=O [Example 25, 2-butyl-5-({[4-(morpholin-4-yl)pyridin-3-yl]methyl}amino)-2,3-dihydro-1H-isoindol-1-one]
2 to 10 | CCCCN1Cc2cc(NCc3cnccc3N3CCN(C)CC3)ccc2C1=O [Example 26, 2-butyl-5-({[4-(4-methylpiperazin-1-yl)pyridin-3-yl]methyl}amino)-2,3-dihydro-1H-isoindol-1-one]
0.5 to 2 | CCCCN1Cc2cc(NCc3c(C)ccnc3Cl)ccc2C1=O [Example 33, 2-butyl-5-{[(2-chloro-4-methylpyridin-3-yl)methyl]amino}-2,3-dihydro-1H-isoindol-1-one]
0.5 to 2 | CCCCN1Cc2cc(NCc3ccc(Br)nc3Cl)ccc2C1=O [Example 34, 5-{[(6-bromo-2-chloropyridin-3-yl)methyl]amino}-2-butyl-2,3-dihydro-1H-isoindol-1-one]
< 0.5 | CCCCN1Cc2cc(NCc3c(Cl)ccnc3Cl)ccc2C1=O [Example 35, 2-butyl-5-{[(2,4-dichloropyridin-3-yl)methyl]amino}-2,3-dihydro-1H-isoindol-1-one]
0.5 to 2 | CCCCN1Cc2cc(NCc3ccc(Cl)nc3OC)ccc2C1=O [Example 36, 2-butyl-5-{[(6-chloro-2-methoxypyridin-3-yl)methyl]amino}-2,3-dihydro-1H-isoindol-1-one]
0.5 to 2 | CCCCN1Cc2cc(NCc3ccc(OC)nc3Cl)ccc2C1=O [Example 37, 2-butyl-5-{[(2-chloro-6-methoxypyridin-3-yl)methyl]amino}-2,3-dihydro-1H-isoindol-1-one]
2 to 10 | CCCCN1Cc2cc(NCc3cccnc3Cl)ccc2C1=O [Example 38, 2-butyl-5-{[(2-chloropyridin-3-yl)methyl]amino}-2,3-dihydro-1H-isoindol-1-one]
0.5 to 2 | COCCN1Cc2cc(NCc3c(C(F)(F)F)ccnc3Cl)cc(C)c2C1=O [Example 39]
2 to 10 | CCCCN1Cc2cc(NCc3cnccc3NCc3ccccc3)ccc2C1=O [Example 42, 5-((4-(benzylamino)pyridin-3-yl)methylamino)-2-butylisoindolin-1-one]
0.5 to 2 | CCCCN1Cc2cc(NCc3cnccc3NC(=O)C(C)(C)C)ccc2C1=O [Example 43, N-(3-((2-butyl-1-oxoisoindolin-5-ylamino)methyl)pyridin-4-yl)pivalamide]
< 0.5 | Cc1cc(-c2ccccc2)c(COc2ccc3c(c2)CN(CCOC(F)(F)F)C3=O)c(C)[n+]1[O-] [Example 44, 2,6-dimethyl-3-((1-oxo-2-(2-(trifluoromethoxy)ethyl)-isoindolin-5-yloxy)-methyl)-4-phenylpyridine 1-oxide]
